Assay results reported in ChEMBL document CHEMBL3632501, “New SIRT1 activator from alkaline hydrolysate of total saponins in the stems-leaves of Panax ginseng” (Bioorg Med Chem Lett, 2015).
pIC50: −log10 of the molar value. Calls of active or inactive are those of the source. The rule behind the calls is not given here.

Columns and labels:
[1] = biological target: T1, NAD-dependent protein deacetylase sirtuin-1 (Homo sapiens) (UniProt Q96EB6); test: Activation of SIRT1 (unknown origin) after 45 mins by NAD/NADH enzyme-based fluorometric assay
T1 sequence (whole entry): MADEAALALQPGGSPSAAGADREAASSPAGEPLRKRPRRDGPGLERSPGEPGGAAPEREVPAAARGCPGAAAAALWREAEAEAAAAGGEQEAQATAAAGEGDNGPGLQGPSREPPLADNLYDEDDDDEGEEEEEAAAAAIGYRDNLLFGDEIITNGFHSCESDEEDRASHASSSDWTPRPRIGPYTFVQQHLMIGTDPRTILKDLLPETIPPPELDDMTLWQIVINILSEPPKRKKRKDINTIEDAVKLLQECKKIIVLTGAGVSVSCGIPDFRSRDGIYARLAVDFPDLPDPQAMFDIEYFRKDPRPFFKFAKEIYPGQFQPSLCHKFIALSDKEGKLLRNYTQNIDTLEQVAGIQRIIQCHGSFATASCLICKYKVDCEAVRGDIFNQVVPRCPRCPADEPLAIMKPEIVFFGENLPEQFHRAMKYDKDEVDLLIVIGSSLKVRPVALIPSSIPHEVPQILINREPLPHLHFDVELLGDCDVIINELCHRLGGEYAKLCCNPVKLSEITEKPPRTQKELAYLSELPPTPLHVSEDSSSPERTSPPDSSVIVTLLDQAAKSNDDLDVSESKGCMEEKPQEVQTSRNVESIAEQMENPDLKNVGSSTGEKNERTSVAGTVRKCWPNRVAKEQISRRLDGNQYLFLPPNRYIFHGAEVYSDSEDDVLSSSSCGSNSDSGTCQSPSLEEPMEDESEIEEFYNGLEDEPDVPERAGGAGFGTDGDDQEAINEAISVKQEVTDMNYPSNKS

HepG2 = test: Cytotoxicity against human HepG2 cells after 48 hrs by MTT assay; assay type: functional, cell-based; details: for pIC50: HepG2, 48 h
HL-60 = test: Cytotoxicity against human HL60 cells after 48 hrs by MTT assay; assay type: functional, cell-based; details: for pIC50: HL-60, 48 h

What does the source list for `CC(C)=CCC[C@@](C)(O)[C@H]1CC[C@]2(C)[C@@H]1[C@H](O)C[C@@H]1[C@@]3(C)CC[C@H](O)C(C)(C)[C@@H]3[C@@H](O)C[C@]12C`?
Activity [1]: Active; pIC50 (HepG2): 4.23; pIC50 (HL-60): 4.54

`C=C(CCC=C(C)C)[C@H]1CC[C@]2(C)[C@@H]1[C@H](O)C[C@@H]1[C@@]3(C)CC[C@H](O[C@@H]4O[C@H](CO)[C@@H](O)[C@H](O)[C@H]4O[C@@H]4O[C@H](CO)[C@@H](O)[C@H](O)[C@H]4O)C(C)(C)[C@@H]3CC[C@]12C` [GISENOSIDE RK1] was tested. Which Activity [1] did it give?
Its Activity is “Active”.

And the pIC50 (HepG2)?
The pIC50 was 4.10.

What about the pIC50 (HL-60) of the same compound?
The pIC50 was 4.24.

With `CC(C)=CCC[C@](C)(O)[C@H]1CC[C@]2(C)[C@@H]1[C@H](O)C[C@@H]1[C@@]3(C)CC[C@H](O)C(C)(C)[C@@H]3[C@@H](O)C[C@]12C` as the compound, how does the Activity [1] read?
The Activity was “Active”.

What about the pIC50 (HepG2) of the same compound?
The pIC50 was 4.36.

What about the pIC50 (HL-60) of the same compound?
Its pIC50 is 4.64.

What does the source list for `CC(C)=CCC[C@](C)(O)[C@H]1CC[C@]2(C)[C@@H]1[C@H](O)C[C@@H]1[C@@]3(C)CC[C@H](O)C(C)(C)[C@@H]3CC[C@]12C`?
Activity [1]: Active; pIC50 (HepG2): 4.34; pIC50 (HL-60): 4.81

With `CCC1=C[C@@H]2CN(C1)Cc1c([nH]c3ccccc13)[C@@](C(=O)OC)(c1cc3c(cc1OC)N(C)[C@H]1[C@@](O)(C(=O)OC)[C@H](OC(C)=O)[C@]4(CC)C=CCN5CC[C@]31[C@@H]54)C2` [VINORELBINE] as the compound, how does the pIC50 (HepG2) read?
The pIC50 was 4.64.

And the pIC50 (HL-60)?
The pIC50 was 4.94.

`CC(C)=CCC[C@@](C)(O)[C@H]1CC[C@]2(C)[C@@H]1[C@H](O)C[C@@H]1[C@@]3(C)CC[C@H](O)C(C)(C)[C@@H]3CC[C@]12C` was tested. Which Activity [1] did it give?
Its Activity is “Active”.

And the pIC50 (HepG2)?
Its pIC50 is 4.16.

What about the pIC50 (HL-60) of the same compound?
Its pIC50 is 4.63.

For `C=C(C)[C@@H](O)C/C=C(\C)[C@H]1CC[C@]2(C)[C@@H]1[C@H](O)C[C@@H]1[C@@]3(C)CC[C@H](O[C@@H]4O[C@H](CO)[C@@H](O)[C@H](O)[C@H]4O)C(C)(C)[C@@H]3CC[C@]12C`, which Activity [1] is on record?
The Activity was “Active”.

And the pIC50 (HepG2)?
The pIC50 was 4.36.

And the pIC50 (HL-60)?
The pIC50 was 4.61.

`C=C(CCC=C(C)C)[C@H]1CC[C@]2(C)[C@@H]1[C@H](O)C[C@@H]1[C@@]3(C)CC[C@H](O)C(C)(C)[C@@H]3[C@@H](O)C[C@]12C` was tested. Which Activity [1] did it give?
The Activity was “Active”.

And the pIC50 (HepG2)?
Its pIC50 is 4.38.

And the pIC50 (HL-60)?
The pIC50 was 4.74.

Which results are given for `CC(C)=CCC[C@](C)(O)[C@H]1CC[C@]2(C)[C@@H]1[C@H](O)C[C@@H]1[C@@]3(C)CC[C@H](O)C(C)(C)[C@@H]3[C@@H](O[C@@H]3O[C@H](CO)[C@@H](O)[C@H](O)[C@H]3O)C[C@]12C` [GINSENOSIDE RH1]?
Activity [1]: Active; pIC50 (HepG2): < 3.70; pIC50 (HL-60): < 3.70

Which Activity [1] does the source give for `CC(C)=CC/C=C(\C)[C@H]1CC[C@]2(C)[C@@H]1[C@H](O)C[C@@H]1[C@@]3(C)CC[C@H](O)C(C)(C)[C@@H]3[C@@H](O)C[C@]12C` here?
Its Activity is “Active”.

What about the Activity (HepG2) of the same compound?
The Activity was “Dose-dependent effect”.

What about the pIC50 (HepG2) of the same compound?
Its pIC50 is 4.61.

What about the Activity (HL-60) of the same compound?
Its Activity is “Dose-dependent effect”.

And the pIC50 (HL-60)?
The pIC50 was 4.99.

For `CC(=O)OC[C@H]1O[C@@H](O[C@H]2C[C@]3(C)[C@H](C[C@@H](O)[C@@H]4[C@@H]([C@@](C)(O)CCC=C(C)C)CC[C@]43C)[C@@]3(C)CC[C@H](O)C(C)(C)[C@H]23)[C@H](O)[C@@H](O)[C@@H]1O`, which Activity [1] is on record?
The Activity was “Active”.

What about the pIC50 (HepG2) of the same compound?
Its pIC50 is 3.77.

And the pIC50 (HL-60)?
The pIC50 was 3.89.

What does the source list for `CC(C)=CCC[C@@](C)(O)[C@H]1CC[C@]2(C)[C@@H]1[C@H](O)C[C@@H]1[C@@]3(C)CC[C@H](O)C(C)(C)[C@@H]3[C@@H](O[C@@H]3O[C@H](CO)[C@@H](O)[C@H](O)[C@H]3O)C[C@]12C`?
Activity [1]: inactive; pIC50 (HepG2): < 3.70; pIC50 (HL-60): < 3.70

For `CC(C)=CC/C=C(\C)[C@H]1CC[C@]2(C)[C@@H]1[C@H](O)C[C@@H]1[C@@]3(C)CC[C@H](O)C(C)(C)[C@@H]3[C@@H](O[C@@H]3O[C@H](CO)[C@@H](O)[C@H](O)[C@H]3O[C@@H]3O[C@@H](C)[C@H](O)[C@@H](O)[C@H]3O)C[C@]12C`, which Activity [1] is on record?
Its Activity is “inactive”.

And the pIC50 (HepG2)?
The pIC50 was 3.82.

And the pIC50 (HL-60)?
The pIC50 was 4.08.

`CC(C)=CC/C=C(\C)[C@H]1CC[C@]2(C)[C@@H]1[C@H](O)C[C@@H]1[C@@]3(C)CC[C@H](O[C@@H]4O[C@H](CO)[C@@H](O)[C@H](O)[C@H]4O)C(C)(C)[C@@H]3[C@@H](O)C[C@]12C` was tested. Which Activity [1] did it give?
Its Activity is “Active”.

What about the pIC50 (HepG2) of the same compound?
The pIC50 was 4.06.

What about the pIC50 (HL-60) of the same compound?
The pIC50 was 4.30.
